Source: ChEMBL document CHEMBL5532665 (J Med Chem, 2024)
The source made the active and inactive calls. The rule behind the calls is not given here.

Legend:
[1] = tested on: Mus musculus; assay: Antinociceptive activity in Kunming mouse model assessed as latency of tail withdrawal at 1416 nmol/kg, sc measured for 10 mins by tail-flick test relative to control; assay type: functional
[2] = tested on: Mus musculus; assay: Antinociceptive activity in Kunming mouse model assessed as latency of tail withdrawal at 1416 nmol/kg, sc measured for 60 mins by tail-flick test relative to control; assay type: functional; conditions: 1 h
[3] = tested on: Mus musculus; assay: Antinociceptive activity in Kunming mouse model assessed as latency of tail withdrawal at 1416 nmol/kg, sc measured for 120 mins by tail-flick test relative to control; assay type: functional; conditions: 2 h
[4] = tested on: Mus musculus; assay: Antinociceptive activity in Kunming mouse model assessed as latency of tail withdrawal at 1416 nmol/kg, sc measured for 30 mins by tail-flick test relative to control; assay type: functional; conditions: 0.5 h
[5] = target: T1, Delta-type opioid receptor (Homo sapiens, UniProt P41143); assay: Agonist activity at human DOR expressed in CHO-K1 cells co-expressing G-alpha15 by calcium mobilization assay relative to control; assay type: functional, cell-based; conditions: filed as agonist
[6] = target: T2, Kappa-type opioid receptor (Homo sapiens, UniProt P41145); assay: Agonist activity at human KOR expressed in CHO-K1 cells co-expressing G-alpha15 by calcium mobilization assay relative to control; assay type: functional, cell-based
[7] = target: T3, Mu-type opioid receptor (Homo sapiens, UniProt P35372); assay: Agonist activity at human MOR expressed in CHO-K1 cells co-expressing G-alpha15 by calcium mobilization assay relative to control; assay type: functional, cell-based; conditions: filed as agonist
[8] = tested on: Mus musculus; assay: Antinociceptive activity in Kunming mouse model assessed as latency of tail withdrawal at 138.8 nmol/kg, sc measured for 120 mins by tail-flick test relative to control; assay type: functional; conditions: 2 h
[9] = tested on: Mus musculus; assay: Antinociceptive activity in Kunming mouse model assessed as latency of tail withdrawal at 138.8 nmol/kg, sc measured for 30 mins by tail-flick test relative to control; assay type: functional; conditions: 0.5 h
[10] = tested on: Mus musculus; assay: Antinociceptive activity in Kunming mouse model assessed as latency of tail withdrawal at 138.8 nmol/kg, sc measured for 60 mins by tail-flick test relative to control; assay type: functional; conditions: 1 h
[11] = tested on: Mus musculus; assay: Antinociceptive activity in Kunming mouse model assessed as latency of tail withdrawal at 138.8 nmol/kg, sc measured for 10 mins by tail-flick test relative to control; assay type: functional
[12] = target: T1, Delta-type opioid receptor; assay: Agonist activity at human DOR expressed in CHO-K1 cells co-expressing G-alpha15 by calcium mobilization assay; assay type: functional, cell-based
[13] = target: T3, Mu-type opioid receptor; assay: Agonist activity at human MOR expressed in CHO-K1 cells co-expressing G-alpha15 by calcium mobilization assay; assay type: functional, cell-based
[14] = target: T2, Kappa-type opioid receptor; assay: Agonist activity at human KOR expressed in CHO-K1 cells co-expressing G-alpha15 by calcium mobilization assay; assay type: functional, cell-based; conditions: cho-k1
[15] = target: T2, Kappa-type opioid receptor; assay: Agonist activity at human KOR expressed in CHO-K1 cells co-expressing G-alpha15 upto 100 uM by calcium mobilization assay; assay type: functional, cell-based
[16] = tested on: Mus musculus; assay: Antinociceptive activity in Kunming mouse model assessed as latency of tail withdrawal at 13.9 nmol/kg, sc measured for 30 mins by tail-flick test relative to control; assay type: functional; conditions: 0.5 h
[17] = tested on: Mus musculus; assay: Antinociceptive activity in Kunming mouse model assessed as latency of tail withdrawal at 13.9 nmol/kg, sc measured for 60 mins by tail-flick test relative to control; assay type: functional; conditions: 1 h
[18] = tested on: Mus musculus; assay: Inhibition of gastrointestinal motility in fasted Kunming mouse model treated subcutaneously for 15 mins followed by charcoal-gum arabic treatment measured after 30 mins; assay type: functional; conditions: 0.75 h, route sc, time 45 min
[19] = tested on: Mus musculus; assay: Antinociceptive activity in Kunming mouse model administered orally by tail-flick test; assay type: functional; conditions: route po
[20] = tested on: Mus musculus; assay: Antinociceptive activity in Kunming mouse model assessed as latency of tail withdrawal at 13.9 nmol/kg, sc measured for 120 mins by tail-flick test relative to control; assay type: functional; conditions: 2 h
[21] = tested on: Mus musculus; assay: Antinociceptive activity in Kunming mouse model assessed as latency of tail withdrawal at 13.9 nmol/kg, sc measured for 10 mins by tail-flick test relative to control; assay type: functional
[22] = tested on: Mus musculus; assay: Antinociceptive activity in Kunming mouse model administered subcutaneously measured for 5 to 15 mins by acetic acid-induced writhing test; assay type: functional; conditions: route sc, time 5-15 min
[23] = tested on: Mus musculus; assay: Antinociceptive activity in Kunming mouse model administered subcutaneously by tail-flick test; assay type: functional; conditions: route sc
[24] = Stability in mouse plasma assessed as half life at 0.01 mol/L measured for 72 hrs by RP-HPLC analysis; assay type: ADME, cell-free

T3 sequence (P35372 whole entry): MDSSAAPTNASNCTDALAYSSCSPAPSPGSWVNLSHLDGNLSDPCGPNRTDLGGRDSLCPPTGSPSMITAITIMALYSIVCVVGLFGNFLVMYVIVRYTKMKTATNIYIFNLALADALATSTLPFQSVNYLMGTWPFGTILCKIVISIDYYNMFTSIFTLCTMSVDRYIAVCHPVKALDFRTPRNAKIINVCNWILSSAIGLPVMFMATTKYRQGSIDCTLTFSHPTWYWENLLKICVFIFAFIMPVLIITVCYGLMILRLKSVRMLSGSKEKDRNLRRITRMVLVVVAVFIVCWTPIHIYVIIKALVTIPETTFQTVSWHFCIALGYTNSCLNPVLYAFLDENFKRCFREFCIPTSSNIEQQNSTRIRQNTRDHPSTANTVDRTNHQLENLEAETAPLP
T1 sequence (P41143 whole entry): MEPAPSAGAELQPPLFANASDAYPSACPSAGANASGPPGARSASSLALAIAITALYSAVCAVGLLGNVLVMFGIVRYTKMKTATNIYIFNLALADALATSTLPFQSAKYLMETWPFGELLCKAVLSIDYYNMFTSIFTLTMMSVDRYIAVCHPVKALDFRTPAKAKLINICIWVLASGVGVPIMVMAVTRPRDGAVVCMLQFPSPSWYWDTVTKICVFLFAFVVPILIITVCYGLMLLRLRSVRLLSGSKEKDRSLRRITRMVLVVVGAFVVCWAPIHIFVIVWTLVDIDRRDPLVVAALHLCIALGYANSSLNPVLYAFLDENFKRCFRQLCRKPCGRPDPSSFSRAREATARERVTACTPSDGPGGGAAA
T2 sequence (P41145 whole entry): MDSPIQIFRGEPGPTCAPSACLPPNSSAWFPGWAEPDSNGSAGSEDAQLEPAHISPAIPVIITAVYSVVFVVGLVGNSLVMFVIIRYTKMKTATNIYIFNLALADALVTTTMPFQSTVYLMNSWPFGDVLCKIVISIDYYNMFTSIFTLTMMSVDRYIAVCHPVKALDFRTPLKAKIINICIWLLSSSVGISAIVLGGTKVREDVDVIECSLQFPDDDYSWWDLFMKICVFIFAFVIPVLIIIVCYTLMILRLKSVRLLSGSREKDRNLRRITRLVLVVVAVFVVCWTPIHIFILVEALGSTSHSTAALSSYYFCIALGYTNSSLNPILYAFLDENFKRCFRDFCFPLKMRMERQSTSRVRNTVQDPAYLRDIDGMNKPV

For NC(=O)[C@H]1CCCN1C(=O)[C@@H]1CC(=O)NCCCC[C@@H](NC(=O)[C@@H](N)Cc2ccc(O)cc2)C(=O)NCC(=O)N[C@@H](Cc2ccccc2)C(=O)N1, which MPE [1] is on record?
The MPE was 65.5%.

What about the MPE [2] of the same molecule?
Its MPE is 63.7%.

And the MPE [3]?
The MPE was 33.6%.

What about the MPE [4] of the same molecule?
Its MPE is 91.2%.

With Cc1cc(O)cc(C)c1C[C@H](N)C(=O)N[C@@H]1CCCCNC(=O)C[C@H](C(=O)N2CCC[C@H]2C(N)=O)NC(=O)[C@H](Cc2ccccc2)NC(=O)CNC1=O as the molecule, how does the Emax [5] read?
The Emax was 116%.

What about the Emax [6] of the same molecule?
The Emax was 39.2%.

And the Emax [7]?
The Emax was 101%.

What does the source list for NC(=O)[C@H]1CCCN1C(=O)[C@@H]1CC(=O)NCCCC[C@@H](NC(=O)[C@@H](N)Cc2ccc(O)cc2)C(=O)NCCC(=O)N[C@@H](Cc2ccccc2)C(=O)N1 [listing 1 of 2 here]?
MPE [8]: 40.6%; MPE [9]: 92.6%; MPE [10]: 71%; MPE [11]: 45.6%

Which EC50 ([12]; cho-k1) does the source give for NC(=O)CNC(=O)[C@@H]1CC(=O)NCCCC[C@@H](NC(=O)[C@@H](N)Cc2ccc(O)cc2)C(=O)NCC(=O)N[C@@H](Cc2ccccc2)C(=O)N1 here?
Its EC50 is 0.623 µM.

What about the EC50 ([13]; cho-k1) of the same molecule?
Its EC50 is 0.113 µM.

And the EC50 [14]?
Its EC50 is 9.2 µM.

Which Emax [5] does the source give for NC(=O)[C@@H]1CCCN1C(=O)[C@H]1CC(=O)NCCCC[C@@H](NC(=O)[C@@H](N)Cc2ccc(O)cc2)C(=O)NCC(=O)N[C@@H](CC2CCCCC2)C(=O)N1 here?
Its Emax is 54.4%.

And the Emax [7]?
Its Emax is 105%.

With CN1CC(=O)N[C@@H](Cc2ccccc2)C(=O)N[C@H](C(=O)N2CCC[C@@H]2C(N)=O)CC(=O)NCCCC[C@@H](NC(=O)[C@@H](N)Cc2ccc(O)cc2)C1=O as the molecule, how does the EC50 ([12]; cho-k1) read?
Its EC50 is 3.03 µM.

And the EC50 ([13]; cho-k1)?
The EC50 was 1.15 µM.

Which MPE [8] does the source give for C[C@@H]1NC(=O)[C@H](NC(=O)[C@@H](N)Cc2ccc(O)cc2)CCCCNC(=O)C[C@H](C(=O)N2CCC[C@H]2C(N)=O)NC(=O)[C@H](Cc2ccccc2)NC1=O here?
Its MPE is 27.4%.

And the EC50 ([12]; cho-k1)?
The EC50 was 0.052 µM.

What about the MPE [9] of the same molecule?
Its MPE is 88.9%.

And the EC50 ([13]; cho-k1)?
Its EC50 is 0.0082 µM.

What about the MPE [10] of the same molecule?
Its MPE is 70.1%.

What about the Emax [5] of the same molecule?
Its Emax is 96.6%.

What about the Emax ([6]; filed as agonist) of the same molecule?
Its Emax is 51.4%.

And the Emax [7]?
The Emax was 93.7%.

And the MPE [11]?
The MPE was 70.9%.

What about the EC50 [14] of the same molecule?
The EC50 was 4.82 µM.

What does the source list for NC(=O)[C@H]1CCCN1C(=O)[C@@H]1CC(=O)NCCCC[C@@H](NC(=O)[C@@H](N)Cc2ccc(O)cc2)C(=O)NCC(=O)N(Cc2ccccc2)CC(=O)N1?
MPE [1]: 46.8%; MPE [2]: 76.3%; MPE [3]: 7.7%; MPE [4]: 91.4%

Which results are given for NC(=O)[C@@H]1CCCN1C(=O)[C@H]1CC(=O)NCCCC[C@@H](NC(=O)[C@@H](N)Cc2ccc(O)cc2)C(=O)NCC(=O)N[C@H](Cc2ccccc2)C(=O)N1?
EC50 [12]: 0.965 µM; Activity [15]: inactive; EC50 [13]: 0.0416 µM; MPE [1]: 61.8%; MPE [2]: 55.5%; MPE [3]: 28.3%; Emax [5]: 72.8%; MPE [4]: 86.6%; Emax [7]: 104%

What does the source list for NC(=O)CNC(=O)[C@H]1CC(=O)NCCCC[C@@H](NC(=O)[C@@H](N)Cc2ccc(O)cc2)C(=O)NCC(=O)N[C@@H](Cc2ccccc2)C(=O)N1?
Emax [5]: 104%; Emax ([6]; filed as agonist): 48.4%; Emax [7]: 91.1%

For CN1C(=O)CNC(=O)[C@H](NC(=O)[C@@H](N)Cc2ccc(O)cc2)CCCCNC(=O)C[C@@H](C(=O)N2CCC[C@@H]2C(N)=O)NC(=O)[C@@H]1Cc1ccccc1, which MPE [16] is on record?
Its MPE is 93.8%.

And the MPE [17]?
Its MPE is 93.9%.

What about the ED50 [18] of the same molecule?
Its ED50 is 0.0326 µmol/kg.

What about the ED50 [19] of the same molecule?
The ED50 was 0.0003 µmol/kg.

And the MPE [20]?
The MPE was 75.3%.

And the MPE [21]?
Its MPE is 81.9%.

What about the ED50 [22] of the same molecule?
The ED50 was 0.0025 µmol/kg.

What about the ED50 [23] of the same molecule?
The ED50 was 0.0006 µmol/kg.

Which results are given for NC(=O)[C@@H]1CC(=O)NCCCC[C@@H](NC(=O)[C@@H](N)Cc2ccc(O)cc2)C(=O)NCC(=O)N[C@@H](Cc2ccccc2)C(=O)N1?
EC50 ([12]; cho-k1): 0.0125 µM; EC50 ([13]; cho-k1): 0.0014 µM; EC50 [14]: 1.29 µM

For C[C@H]1NC(=O)[C@H](NC(=O)[C@@H](N)Cc2ccc(O)cc2)CCCCNC(=O)C[C@H](C(=O)N2CCC[C@H]2C(N)=O)NC(=O)[C@H](Cc2ccccc2)NC1=O, which MPE [16] is on record?
The MPE was 91.4%.

And the half-life at 0.01 mol/L [24]?
The half-life at 0.01 mol/L was > 72 h.

And the EC50 ([13]; cho-k1)?
Its EC50 is 0.0624 µM.

And the MPE [17]?
The MPE was 88.4%.

What about the MPE [20] of the same molecule?
The MPE was 44.4%.

And the MPE [21]?
Its MPE is 63.6%.

What about the Emax [7] of the same molecule?
Its Emax is 115%.

For NC(=O)[C@H]1CCCN1C(=O)[C@@H]1CC(=O)NCCCC[C@@H](NC(=O)[C@@H](N)Cc2ccc(O)cc2)C(=O)NCCC(=O)N[C@@H](Cc2ccccc2)C(=O)N1 [listing 2 of 2 here], which EC50 ([13]; cho-k1) is on record?
The EC50 was 0.974 µM.
